Data as given in patent publication US20250064836A1 (priority 2023, published 2025).
Entries after “also recorded” stand apart in the source; their conditions may differ. Where two headings read alike, the source gives them in different places. No end group written: not given here.

Experiments:
mice = type: in vivo, mouse
cecal tissue explants = conditions: mouse, in vivo
mouse footpads = conditions: for oedema induced by TcdB2: footpad injection of TcdB2, antagonist pre-treatment
Procedure: The footpad toxin injection assay was performed as previously described. Briefly, mice were restrained in an incontinence pad and the footpad was held and subsequently injected using a 29.5G syringe into the plantar surface. […] Paw diameter changes were assessed by calculating a ratio relative to the un-injected foot. For each test toxin, 500 ng were administered in a volume of 20 μl of normal saline. Pharmacological assays were performed in female CDI mice, with pre-treatment with drugs 30 min to 1 h prior to toxin injection. For experiments involving transgenic mice, experiments were performed in male and female mice (age matched, 8-15 weeks).

C. difficile 630 Δerm [1] = assay: C. difficile growth in vitro (OD600); conditions: 20 μM, 24 h
[2] = tested on: C. difficile M7404 (A-/B+); assay: CDI mouse model, hypervirulent strain M7404 (TcdA-/TcdB2); conditions: for fatality: CDI with M7404 (A-/B+), mice; for histopathological scores of colitis: surviving mice, CDI with M7404
C. difficile 630 Δerm [3] = assay: Antibiotic-treatment-induced CDI mouse model, C. difficile 630 Δerm; conditions: for histopathological scores: CDI mouse model, 630 Δerm, FIG. 4D; for histopathological scores / pathogen burden (C. difficile CFUs in faeces): WT mice; for pathogen burden (C. difficile CFUs in faeces): day 2 after infection
human brain pericytes = assay: IL-8 secretion from cultured pericytes (ELISA); type: cell-based
Procedure: Primary human cultured brain vascular pericytes (ScienCell, #1200) were routinely cultured in special medium with supplement, FBS and penicillin streptomycin provided by the cell's vendor (ScienCell, #1201). Cells were subcultured when confluent and used up to passage 10. For secretion assays these were performed on early passage cells (passages 3-8). Cytokine secretion in cell culture medium was determined using ELISA based assays against IL-8 (Biolegend, 431504). The effect of CGRP on cultured pericytes was determined by incubating pericytes for 1 h with human CGRPB (Cayman, 24725).

[4] = cecum injection of TcdB (6 μg), mice pretreated with antagonist 30 min to 1 h before, FIG. 4C

substance P (RPKPQQFFGLM; not fully specified (C-terminus); ends and bridges not checked; UniProt P20366 58-68, looked up) [neuropeptide composed of a chain of 11 amino acids, tachykinin family]
histopathological scores (mice; mouse, in vivo): restored histopathological scores
susceptibility to TcdB (histopathology) (mice; mouse, in vivo): restored the susceptibility
CGRP secretion (cecal tissue explants): restored

C=C(C)[C@]12C[C@@H](C)[C@@]34O[C@](Cc5ccccc5)(O[C@@H]1[C@@H]3C=C(COC(=O)Cc1ccc(O)c(OC)c1)C[C@]1(O)C(=O)C(C)=C[C@@H]41)O2 [RTX, resiniferatoxin]
histopathology upon TcdB administration (mice; mouse, in vivo): less severe histopathology
CGRP secretion (cecal tissue explants): reduced
SP levels (cecal tissue explants): reduced SP levels

NCCCC[C@H](NC(=O)[C@@H](Cc1cc(Br)c(O)c(Br)c1)NC(=O)N1CCC(N2Cc3ccccc3NC2=O)CC1)C(=O)N1CCN(c2ccncc2)CC1 [olcegepant]
histopathological scores (mice; [4]): reduced histopathological scores
oedema induced by TcdB2 (mouse footpads): can prevent oedema induced by TcdB2; also recorded: prevented
C. difficile growth rate / fitness (OD600) (C. difficile 630 Δerm [1]): not affected; also recorded: Neither drug influenced C. difficile growth rate
fatality [2]: markedly reduced
histopathological scores of colitis [2]: markedly reduced
histopathological scores (C. difficile 630 Δerm [3]): reduced histopathological scores
effect on C. difficile colonization and histopathological scores (C. difficile 630 Δerm [3]; Calcb KO mice): nor had an effect
pathogen burden (C. difficile CFUs in faeces) (C. difficile 630 Δerm [3]): reduced pathogen burden

CGRP: human CGRPβ (Cayman, 24725) added to cultured pericytes (ACNTATCVTHRLAGLLSRSGGMVKSNFVPTNVGSKAF; ends and bridges not checked; cysteine pairing not given here; UniProt P10092 82-118, looked up)
IL-8 secretion (human brain pericytes): induced secretion of IL-8

C[C@@H](O[C@H]1OCCN(Cc2n[nH]c(=O)[nH]2)[C@H]1c1ccc(F)cc1)c1cc(C(F)(F)F)cc(C(F)(F)F)c1 [aprepitant]
histopathological scores (mice; [4]): reduced histopathological scores
oedema induced by TcdA (mouse footpads; footpad injection of TcdA, antagonist pre-treatment): prevented; also recorded: blocked
oedema induced by TcdB2 (mouse footpads): prevented
oedema induced by TcdB2 (mouse footpads; listed as Aprepitant): can prevent oedema induced by TcdB2
oedema induced by TcdB (mouse footpads; footpad injection of TcdB, antagonist pre-treatment): prevented oedema induced by TcdB
oedema induced by GTD-ciDT (mouse footpads; footpad, Tac1-Cre mice infected with AAV-DTR): blocked
C. difficile growth rate / fitness (OD600) (C. difficile 630 Δerm [1]): not affected; also recorded: Neither drug influenced C. difficile growth rate
fatality [2]: markedly reduced
histopathological scores of colitis [2]: markedly reduced
histopathological scores (C. difficile 630 Δerm [3]): reduced histopathological scores
effect on C. difficile colonization and histopathological scores (C. difficile 630 Δerm [3]; Tac1 KO mice): nor had an effect
pathogen burden (C. difficile CFUs in faeces) (C. difficile 630 Δerm [3]): reduced pathogen burden

B1: fremanezumab (antibody, chains of the INN, looked up, V domains shown)
VH: EVQLVESGGGLVQPGGSLRLSCAASGFTFSNYWISWVRQAPGKGLEWVAEIRSESDASATHYAEAVKGRFTISRDNAKNSLYLQMNSLRAEDTAVYYCLAYFDYGLAIQNYWGQGTLVTVSS
VL: EIVLTQSPATLSLSPGERATLSCKASKRVTTYVSWYQQKPGQAPRLLIYGASNRYLGIPARFSGSGSGTDFTLTISSLEPEDFAVYYCSQSYNYPYTFGQGTKLEIK
histopathological scores (mice; mouse, in vivo): reduced histopathological scores
histopathological scores (C. difficile 630 Δerm [3]): reduced histopathological scores
